Here are results for 1 molecule from patent US7445931B2, “Compositions and methods for enrichment of neural stem cells using ceramide analogs” (Bresagen, Inc., priority 2002, dated 2008).

Where only a bound is given, the exact number is not on record here.

Assay [1] relates to seeded sfEBMs derived from HESC colonies. The assay is described as follows: S18 treatment of seeded serum free embryoid bodies (sfEBMs), morphology and DAPI staining. In kind it is cell-based, human. The source says:
sfEBMs were derived from domed HESC colonies, grown in suspension for 24 days with one passage, and seeded to polyornithine/laminin coated chamber slides in DMEM/F12, supplemented with 1×N2 (Gibco), and 1% FCS.
Apoptosis in seeded serum free embryoid bodies was monitored by morphological observation of cell death and DAPI staining to reveal apoptotic nuclei. Apoptotic nuclei were observed as obviously fragmented and degenerating nuclei, with small punctuate patterns of DAPI staining. Rosette regions from essentially serum free embryoid bodies in suspension were passaged further in the same medium, either withdrawing S18 or culturing the embryoid bodies for an additional 4 to 8 days in the presence of S18. Rosette regions were then seeded onto polyornithine/laminin coated slides for analysis of proliferation and differentiation to neural lineages.

The test system of a further assay is sfEBMs in suspension. The assay is described as follows: S18 treatment of sfEBMs in suspension, histology and immunocytochemistry. In kind it is cell-based, human. As to the method: To perform immunostaining on fixed cells or cytospins, the samples were washed in block buffer (3% goat serum, 1% polyvinyl Pyrolidone, 0.3% Triton X-100 in wash buffer) for 30 minutes, and then incubated with the appropriate dilution of the primary antibody, or combination of antibodies for 4-6 hours at room temperature. The primary antibodies were anti-Map2, a mouse monoclonal antibody recognizing the Map-2 a, b and c isoforms (Sigma, Catalog # M4403) at a 1/500 dilution; anti-Nestin, a rabbit polyclonal antibody (Chemicon, Catalog # AB5922) at a 1/200 dilution; anti-Oct-4, a rabbit polyclonal antibody (Santa Cruz, Catalog # sc-9081) at a 1/200 dilution; sheep anti-Tyrosine Hydroxlyase (TH) antibody (Pel-Freez, Catalog # P60101-0) at a 1/500 dilution; anti-phosphoHistoneH3, a rabbit polyclonal antibody (Upstate, Catalog, # 06-570) at a 1/400 dilution; anti-SSEA4, a mouse monoclonal antibody (Developmental Studies Hybridoma Bank, Catalog # MC-813-70) at a ⅕ dilution. The cells were then washed in wash buffer (50 mM Tris-HCL pH 7.5, and 2.5 mM NaCl) 3 times for 5 minutes each wash. The cells were then incubated for a minimum of 2 hours in secondary antibodies diluted 1:1000, followed by washing in wash buffer. The secondary antibodies were appropriate combinations of Alexa-350 (blue), -488 (green) or -568 (red) conjugated goat anti-chicken, anti-rabbit, anti-sheep or anti-mouse antibodies, all available from Molecular Probes. Some samples were stained with 5 ng/ml DAPI to detect cell nuclei, and were then washed from overnight to 2 days in a large volume of wash buffer. The slides were mounted with mounting medium and a cover slip. Slides were visualized using either a NIKON TS100 inverted microscope or a NIKON TE 2000-S inverted microscope with a Q Imaging digital camera
Essentially serum free embryoid bodies (sfEBMs) were generated as described in Example 6, and were exposed to S18 at different stages of their development in order to assess the timing of depletion of high Oct-4 expressing cells, and in order to determine when neural rosettes could be selected. The sfEBMs in suspension were treated with 10 μM S18 in 50% DMEM/F12, 50% MEDII, supplemented with 1×N2, Glutamine (20 mM), penicillin (0.5 U/ml), and streptomycin (0.5 U/ml) for varying amounts of time, and the sfEBMs were then evaluated histologically and by immunocytochemistry.
Essentially serum free embryoid bodies were derived from protease passaged cells and grown in the presence of 50% MEDII conditioned medium. The embryoid bodies were exposed to 10 μM S18 in the same medium from day 6 to 9 after derivation. At day 9 the S18 treated sfFBMs and matched control sfEBMs not exposed to S18 were fixed, embedded in plastic, cut to 3 micron sections and stained with DAPI to enable the precise determination of the proportion of the total healthy nuclei of an sfEBM that were rosette cell nuclei.

A further assay has as its system EB8-derived cells. The assay is described as follows: Injection of ceramide analog treated EB8-derived cells into mouse brain, teratoma formation. In kind it is in vivo, C57BL6 mice. As to the method: (§1) In vitro differentiating ES cells at stage EB8 were incubated for […] with 75 μM S18, or 35 μM N-acyl sphingosine or other ceramide analogs. Protein was isolated from cells incubated with S18 for 24 hours and from untreated cells, separated by SDS-PAGE, and the expression of Oct-4 was analyzed by immunoblotting.
Prior to injection into the mouse brain, ES cells were labeled with Vybrant-DiI (rhodamine fluorescence) for permanent vital staining and were mixed with India ink in order to track the injection channel and cell migration/tissue integration. 1×10^4 of the untreated ES-J1 cells were injected, while 2×10^4 of the S18-treated cells were injected in order to control for the percentage of cells lost to apoptosis. The ES cells were injected into the right brain hemisphere (bregma—1.5 mm, 1 mm lateral of central suture, 2.0 mm deep) of 8-10 day old C57BL6 mice using a Hamilton syringe. After 7-21 days, the mice were sacrificed, the brain isolated and fixed with 10% PBS-buffered formalin. The brains were Vibratome sectioned at 100 μm. The distribution of the injected cells was determined by fluorescence microscopy.

Another assay has as its system Oct-4. Put plainly: Oct-4 immunoblotting of EB8 stage cells incubated with S18. As to conditions: EB8 stage cells incubated with 75 μM S18 for 24 hours. In kind it is cell-based, mouse. The method, then:
as §1

The mark [2] stands for this setting: sfEBMs at day 14, 48 hours exposure to 10 μM S18.

Take `CCCCCCCC/C=C\CCCCCCCC(=O)NC(CO)CO` [S18, N-(2-hydroxy-1-(hydroxymethyl)ethyl)-oleoylamide]: the “time until effect was observed” value in assay [1] (6, 8 or 10 μM S18) is ≤ 24 h. Moreover, in assay [1] (6, 8 or 10 μM S18 for 36 hours), the “effect on neural rosette structures” value is “did not appear to be adversely affected” and the “induction of apoptosis in the culture” value is “induced apoptosis of a large proportion of the culture”. Also, the cell death entry in assay [1] (36 hours exposure to 6 μM S18) is on record as “a high proportion of cells within these cultures have been killed”. Further, the cell death entry in assay [1] (36 hours exposure to 8 μM S18) is “a high degree of cell death is apparent”. For the same molecule, in the assay on sfEBMs in suspension (10 μM S18, four days), the “viable embryoid bodies derived from monolayer crater cells” value is “No viable embryoid bodies were observed”. Besides, the “regions of high Oct-4 expression (residual pluripotent cells)” value in the assay with sfEBMs in suspension (S18 selected sfEBM (10 μM) seeded at day 21, anti-Oct-4 staining) was “no regions of high Oct-4 expression could be detected”. In addition, the “mitotic activity of neural rosette precursor cells (phosphoHistone H3)” value in the assay with sfEBMs in suspension (day 28 after derivation, 8 days after withdrawal of S18) is reported as “still mitotically active”. For the same molecule, in the assay with sfEBMs in suspension (exposure to 10 μM S18), the “presumptive dopaminergic neurons or their precursors (anti-TH staining)” value is on record as “not ablated”. Further, in the assay on sfEBMs in suspension (setting [2]), the “apoptosis in sfEBMs” value is reported as “extensive apoptosis in the bodies” and the “morphology of rosette regions” value is “morphologically normal”. Besides, the “population surviving incubation (DAPI stained sections)” value in the assay on sfEBMs in suspension (sfEBMs from protease passaged cells, 10 μM S18 from day 6 to 9) was “a very pure population of neural precursor rosette cells had survived”. The teratoma formation result in the assay with EB8-derived cells (EB8-derived cells treated with S18, injected into mouse brain, ten days after injection) is listed as “did not show teratoma formation”. Also, the “migration and integration of injected cells” value in the assay on EB8-derived cells (S18-treated EB8-derived cells, Vybrant diI stained, host killed after 21 days) is “migrated to the hippocampus, and integrated into the host's brain tissue”. In the assay with Oct-4, the “Oct-4 immunostaining relative to untreated control cells” value amounted to 25% and the “decrease in Oct-4 protein levels” value is reported as 75%.
